Measurements reported in US20120100227A1, “KINASE PROTEIN BINDING INHIBITORS” (University of Florida Research Foundation, priority 2009, published 2012).

Columns and labels:
[1] = test system: colon cancer HCT116 p53+/+ cells; test: Apoptosis assay, HCT116 p53+/+; type: cell-based, human; settings: dose-dependent
Procedure: (§1) Apoptosis Assay. Detached cells were collected and fixed in 3.7% formaldehyde in 1×PBS solution for the apoptosis assay. Detection of apoptosis was done with Hoechst 33342 staining. The percent of apoptotic cells was calculated as a ratio of apoptotic detached cells divided by the total number of cells in three independent experiments in several fields with the fluorescent microscope. For each experiment 300 cells per treatment were counted.
(§2) To study M13 effect in colon cancer cells and its dependence on p53 pathway, we did similar experiments to BT474 cells with colon cancer HCT116 p53−/− and p53+/+ cells. […] Thus, the in vitro effect of M13 on viability, detachment and apoptosis was p53-independent.

[2] = test system: colon cancer HCT116 p53+/+ cells; test: Detachment assay, HCT116 p53+/+; type: cell-based, human; settings: dose-dependent
Procedure: (§3) Detachment Assay. Cells were plated with and without inhibitors for 24 hours, and detached and attached cells were counted in a hemocytometer. We calculated the percent of detachment by dividing the number of detached cells by the total number of cells. The percent of detached cells was calculated in three independent experiments.
as §2

[3] = test system: colon cancer HCT116 p53+/+ cells; test: Cell viability assay, HCT116 p53+/+; type: cell-based, human; settings: dose-dependent
Procedure: (§4) Cell lines and culture. BT474 breast carcinoma cells were maintained in RPMI1640 medium supplemented with 10% fetal bovine serum (FBS), 5 μg/ml insulin, and 1 μg/ml penicillin/streptomycin. The MCF-7 cell line was obtained from ATCC and maintained according to the manufacturer's protocol. HCT116p53+/+ and p53−/− colon cancer cells were maintained in McCoy's5A medium with 10% FBS.
(§5) Cell Viability Assay. The cells were treated with compounds at different concentrations for 24 hours. The 3-(4,5-dimethylthiazol-2-yl)-5-(3-carboxymethoxyphenyl)-2-(4-sulfophenyl)-2H-tetrazolium compound from Promega Viability kit (Madison, Ill.) was added, and the cells were incubated at 37 C for 1-2 hours. The optical density on 96-plate was analyzed with a microplate reader at 490 nm to determine cell viability.
as §2

[4] = test system: colon cancer HCT116 p53−/− cells; test: Apoptosis assay, HCT116 p53−/−; type: cell-based, human; settings: dose-dependent
Procedure: as §1, §2

BT474 cells [5] = test: Tumor growth in nude mice, BT474; type: in vivo; settings: BT474 subcutaneous tumors, 30 mg/kg IP daily 5 days/week for 3 weeks
Procedure: (§6) Tumor Growth in Nude Mice in vivo. Female nude mice, 6 weeks old, were purchased from Harlan Laboratory. The mice were maintained in the animal facility and all experiments were performed in compliance with NIH animal-use guidelines and IACUC protocol approved by the UF Animal Care Committee. BT474 cells were injected, 2×10^6 cells/injection subcutaneously. HCT116p53−/− and HCT116p53+/+ cells were injected subcutaneously into the left and right side of the same mice to decrease variations. In preliminary experiment different doses of the compound were introduced into the mice, and 30-50 mg/kg was chosen as optimal, non-toxic doses. The day after injection, the M13 compound was introduced by IP injection at 30 mg/kg dose daily 5 days/week for 3 weeks. Tumor diameters were measured with calipers and tumor volume in mm^3 was calculated using this formula=(width)^2×Length/2. At the end of experiment, tumor weight and volume was determined.
M13 decreased breast tumorigenesis in vivo Breast cancer BT474 cells were implanted into the mice to generate tumors.

[6] = test system: colon cancer HCT116 p53−/− cells; test: Detachment assay, HCT116 p53−/−; type: cell-based, human; settings: dose-dependent
Procedure: as §3, §2

HCT116p53+/+ cells = test: Tumor growth in nude mice, HCT116 p53+/+; type: in vivo; settings: HCT116 p53+/+ subcutaneous tumors, 30 mg/kg IP; no significant difference to p53−/−
Procedure: as §6
(§7) M13 decreased similarly colon tumorigenesis in both HCT116 p53+/+ and p53−/− in vivo. […] Thus, in vivo effect of M13 on tumorigenesis is p53-independent.

[7] = set-up: species or system nude mice; settings: female, nude, mouse, in vivo
Procedure: as §6

HCT116p53−/− cells = test: Tumor growth in nude mice, HCT116 p53−/−; type: in vivo; settings: HCT116 p53−/− subcutaneous tumors, 30 mg/kg IP; no significant difference to p53+/+
Procedure: as §6, §7

[8] = test system: colon cancer HCT116 p53−/− cells; test: Cell viability assay, HCT116 p53−/−; type: cell-based, human; settings: dose-dependent
Procedure: as §4, §5, §2

[9] = test system: BT474 breast cancer cells; test: Cell viability (MTT) assay, BT474; type: cell-based, human; settings: different concentrations, 24 hours
Procedure: as §4, §5

[10] = test system: BT474 breast cancer cells; test: Apoptosis assay (Hoechst 33342), BT474; type: cell-based, human; settings: BT474, Hoechst 33342 staining of detached cells
Procedure: as §1

[11] = test system: BT474 breast cancer cells; test: Detachment assay, BT474; type: cell-based, human; settings: BT474, 24 hours
Procedure: as §3

BT474 cells [12] = test: Western blotting of BT474 cells (FAK, Y397-FAK, Mdm-2, p53, caspase-8); type: cell-based, human; settings: BT474, different doses of M13, Western blot
Procedure: Western Blotting. Cells or homogenized tumor samples were washed twice with cold 1×PBS and lysed on ice for 30 minutes in a buffer containing: 50 mM Tris-HCl (pH 7.5), 150 mM NaCl, 1% Triton-X, 0.5% NaDOC, 0.1% SDS, 5 mM EDTA, 50 mM NaF, 1 mM NaVO3, 10% glycerol and protease inhibitors: 10 μg/ml leupeptin, 10 μg/ml PMSF and 1 μg/m1 aprotinin. The lysates were cleared by centrifugation at 10,000 rpm for 30 minutes at 4° C. Protein concentrations were determined using a Bio-Rad Kit. The boiled samples were loaded on Ready SDS-10% PAGE gels (Bio Rad, Inc) and used for Western blot analysis with the protein-specific antibody. Immunoblots were developed with chemiluminescence Renaissance reagent (NEN Life Science Products, Inc). For quantification, densitometry of protein bands was performed with NIH Scion Image software.
M13 caused dose-dependent increase of Mdm-2, decrease of FAK and activation of caspase-8 in BT474 cells. We treated BT474 cells with different doses of M13 and performed Western blotting with anti-FAK, Y397-FAK, Mdm-2, p53 and caspase-8 antibodies.

[13] = test system: MCF-7 breast cancer cells; test: Viability, detachment and apoptosis, MCF-7; type: cell-based, human; settings: MCF-7, compared with BT474
Procedure: as §4, §5, §3
Apoptosis Assay. […] The percent of apoptotic cells was calculated as a ratio of apoptotic detached cells divided by the total number of cells in three independent experiments in several fields with the fluorescent microscope. […]

[14] = test system: different cancer cells, including breast, melanoma, colon and pancreatic cancers; test: MTT cell viability assay in different cancer cells; type: cell-based, human; settings: MTT assay with 24 M inhibitors, M13 the best of all tested
Procedure: as §5
The name of this compound is Monotritylthymidine and it is available and was ordered from Sigma.

[15] = molecular target: T1, complex of FAK and Mdm-2 in BT474 cells (Homo sapiens, UniProt Q05397); test: Immunoprecipitation of FAK, complex with Mdm-2; type: cell-based; set-up: dose or concentration left out as unconfirmed
T1 construct: We immunoprecipitated FAK and found complex of FAK with Mdm-2; endogenous in cells; host or cells: BT474 breast cancer cells
Procedure: Immunoprecipitation. Immunoprecipitation was performed according to the standard protocol. In brief, the pre-cleared lysates with equal amount of protein were incubated with 1 μg of primary antibody and 30 μl A/G agarose beads overnight at 4° C. The precipitates were washed with lysis buffer three times and re-suspended in 2×Laemmli buffer. The boiled samples were used for Western blotting, as described above.
M13 disrupts complex of FAK and Mdm-2 in BT474 cells. We immunoprecipitated FAK and found complex of FAK with Mdm-2, confirming and reproducing data of Lim et al, Molecular Cell, 2008. At […] dose of M13, there was decreased level of FAK and complex with Mdm-2.

T1 sequence (Q05397 whole entry, one chain of several): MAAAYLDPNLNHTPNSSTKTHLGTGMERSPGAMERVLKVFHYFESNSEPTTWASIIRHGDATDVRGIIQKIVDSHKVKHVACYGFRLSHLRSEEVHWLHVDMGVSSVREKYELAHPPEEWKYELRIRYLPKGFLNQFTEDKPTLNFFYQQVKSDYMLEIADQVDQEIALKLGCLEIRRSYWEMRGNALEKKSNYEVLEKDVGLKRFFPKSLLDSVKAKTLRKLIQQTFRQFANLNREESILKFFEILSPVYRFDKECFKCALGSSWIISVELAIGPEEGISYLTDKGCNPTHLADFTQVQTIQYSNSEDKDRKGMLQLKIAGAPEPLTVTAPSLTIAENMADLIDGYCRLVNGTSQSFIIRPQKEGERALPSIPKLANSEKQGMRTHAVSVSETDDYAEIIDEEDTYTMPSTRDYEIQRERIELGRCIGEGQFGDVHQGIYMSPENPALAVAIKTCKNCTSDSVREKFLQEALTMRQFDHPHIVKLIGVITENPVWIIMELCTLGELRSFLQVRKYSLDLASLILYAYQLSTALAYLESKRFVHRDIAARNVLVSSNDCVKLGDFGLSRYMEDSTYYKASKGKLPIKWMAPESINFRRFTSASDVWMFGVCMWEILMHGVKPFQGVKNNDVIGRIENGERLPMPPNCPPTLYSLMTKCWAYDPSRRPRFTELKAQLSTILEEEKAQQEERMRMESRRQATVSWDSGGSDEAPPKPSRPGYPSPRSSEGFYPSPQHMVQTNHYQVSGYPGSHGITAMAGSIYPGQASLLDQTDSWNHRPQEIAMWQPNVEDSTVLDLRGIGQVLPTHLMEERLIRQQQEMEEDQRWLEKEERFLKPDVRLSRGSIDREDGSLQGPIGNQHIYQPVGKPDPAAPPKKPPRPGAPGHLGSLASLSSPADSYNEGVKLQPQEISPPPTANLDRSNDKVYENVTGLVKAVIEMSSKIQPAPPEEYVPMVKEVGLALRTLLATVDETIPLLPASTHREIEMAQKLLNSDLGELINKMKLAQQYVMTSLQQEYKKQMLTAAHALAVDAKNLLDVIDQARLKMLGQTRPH

In the case of `Cc1cn(C2CC(O)C(COC(c3ccccc3)(c3ccccc3)c3ccccc3)O2)c(=O)[nH]c1=O` (stereo not shown) [M13, 1-[4-hydroxy-5-[tri(phenyl)methoxymethyl]oxolan-2-yl]-5-methylpyrimidine-2,4-dione], the apoptosis [1] is reported as “increased detachment and apoptosis”, the detachment [2] is reported as “increased detachment” and the viability [3] is reported as “equally decreased viability”. For the same compound, the apoptosis [4] was “increased detachment and apoptosis”, the “breast tumorigenesis in vivo” value (BT474 cells [5]) was “effectively decreased breast tumorigenesis” and the detachment [6] was “increased detachment”. For the same compound, the tumor size (HCT116p53+/+ cells) was “decrease of tumor size”, the “optimal, non-toxic doses” value [7] was 30 to 50 mg/kg and the tumor size (HCT116p53−/− cells) was “decrease of tumor size”. For the same compound, the viability [8] was “equally decreased viability”, the viability [9] was “decreased viability of BT474 breast cancer cells in a dose-dependent manner” and the apoptosis [10] was “dose-dependent increase detachment and apoptosis”. For the same compound, the detachment [11] was “dose-dependent increase detachment”, the FAK levels (BT474 cells [12]) was “decreased FAK levels” and the Mdm-2 levels (BT474 cells [12]) was “increased Mdm-2 levels”. The “activation of caspase-8” value (BT474 cells [12]) was “caused activation of caspase-8”, the “effect on viability, detachment and apoptosis” value [13] was “the same as with BT474 cells” and the “viability of cancer cells” value [14] was “significantly decreased viability of most cancer cells”. The “association of FAK and Mdm-2 (complex)” value [15] was “decreased association of FAK and Mdm-2”.
